Test results published in patent publication US10799496B2, “Naphthylenyl compounds for long-acting injectable compositions and related methods” (priority 2018, dated 2020).

Test: Pharmacokinetic evaluation of the release of naltrexone from Compound 2 in rats following a single intramuscular injection
Type: in vivo, Sprague-Dawley rats
Settings: for Compound 2 conc.: rat plasma
Procedure: Five male Sprague-Dawley rats were allowed to acclimate to the test facility for at least 2 days prior to study start. For dose administration of Compound 2, the rats were lightly anesthetized with isofluorane, the hind leg shaved and dosed intramuscularly with the formulation using a 21G needle. […] Serial whole blood samples were collected via sublingual route (˜150 μL) at 1, 8, and 24 hours post dose, and at 2, 4, 7, 10, 14, 17, 21, 24, 28, 35, 42, 49, 56, 63, 71, 78, 85, and 91 days post dose.
Blood samples were placed into K2EDTA blood collection tubes. After collection, blood samples were maintained chilled (on wet ice) and centrifuged (11,500 rpm for 2 minutes at 5 degrees C.) within 30 minutes to obtain plasma. Plasma was transferred into a single vial, 1.5 mL screw cap micro-centrifuge tube with inserts and stored at −80 degrees C. until analysis.
The formulation dosed was a crystalline suspension of Compound 2 (46 milligrams of Compound 2 dosed per animal), wherein the crystalline test article was characterized with a particle size distribution of Dv10=12.9 μm, Dv50=31.5 μm, and Dv90=63.1 μm (as measured via laser diffraction). The formulation was prepared the day before dosing. Details of the formulation dosed are described in Table D below.
Results of the above intramuscular rat study of Compound 2 are shown in Tables E and F. In particular, Table E reports the average blood plasma levels of naltrexone in rat (n=5) over 91 days following intramuscular administration.

O=C(Cc1ccc2cc(CC(=O)Oc3ccc4c5c3O[C@H]3C(=O)CC[C@@]6(O)[C@@H](C4)N(CC4CC4)CC[C@]536)ccc2c1)Oc1ccc2c3c1O[C@H]1C(=O)CC[C@@]4(O)[C@@H](C2)N(CC2CC2)CC[C@]314 [Compound 2, bis((4R,4aS,7aR,12bS)-3-(cyclopropylmethyl)-4a-hydroxy-7-oxo-2,3,4,4a,5,6,7,7a-octahydro-1H-4,12-methanobenzofuro[3,2-e]isoquinolin-9-yl) 2,2′-(naphthalene-2,6-diyl)diacetate]
Compound 2 conc. (single i.m. dose of Compound 2, day 28, Rat 1): 0.236 ng/mL
Compound 2 conc. (single i.m. dose of Compound 2, day 28, Rat 2): 0.193 ng/mL
Compound 2 conc. (single i.m. dose of Compound 2, day 28, Rat 3): 0.205 ng/mL
Compound 2 conc. (single i.m. dose of Compound 2, day 28, Rat 4): 0.176 ng/mL
Compound 2 conc. (single i.m. dose of Compound 2, day 28, Rat 5): 0.111 ng/mL
Compound 2 conc. (single i.m. dose of Compound 2, day 35, Rat 1): 0.165 ng/mL
Compound 2 conc. (single i.m. dose of Compound 2, day 35, Rat 2): 0.439 ng/mL
Compound 2 conc. (single i.m. dose of Compound 2, day 35, Rat 3): 0.350 ng/mL
Compound 2 conc. (single i.m. dose of Compound 2, day 35, Rat 4): 0.265 ng/mL
Compound 2 conc. (single i.m. dose of Compound 2, day 35, Rat 5): 0.152 ng/mL
Compound 2 conc. (single i.m. dose of Compound 2, day 42, Rat 1): 0.155 ng/mL
Compound 2 conc. (single i.m. dose of Compound 2, day 42, Rat 2): 0.156 ng/mL
Compound 2 conc. (single i.m. dose of Compound 2, day 42, Rat 3): 0.212 ng/mL
Compound 2 conc. (single i.m. dose of Compound 2, day 42, Rat 4): 0.199 ng/mL
Compound 2 conc. (single i.m. dose of Compound 2, day 42, Rat 5): 0.205 ng/mL
Compound 2 conc. (single i.m. dose of Compound 2, day 49, Rat 1): <0.1 ng/mL
Compound 2 conc. (single i.m. dose of Compound 2, day 49, Rat 2): <0.1 ng/mL
Compound 2 conc. (single i.m. dose of Compound 2, day 49, Rat 3): <0.1 ng/mL
Compound 2 conc. (single i.m. dose of Compound 2, day 49, Rat 4): <0.1 ng/mL
Compound 2 conc. (single i.m. dose of Compound 2, day 49, Rat 5): <0.1 ng/mL
Compound 2 conc. (single i.m. dose of Compound 2, day 56, Rat 1): 0.358 ng/mL
Compound 2 conc. (single i.m. dose of Compound 2, day 56, Rat 2): 0.205 ng/mL
Compound 2 conc. (single i.m. dose of Compound 2, day 56, Rat 3): 0.105 ng/mL
Compound 2 conc. (single i.m. dose of Compound 2, day 56, Rat 4): 0.170 ng/mL
Compound 2 conc. (single i.m. dose of Compound 2, day 56, Rat 5): 0.163 ng/mL
Compound 2 conc. (single i.m. dose of Compound 2, day 63, Rat 1): <0.1 ng/mL
Compound 2 conc. (single i.m. dose of Compound 2, day 63, Rat 2): <0.1 ng/mL
Compound 2 conc. (single i.m. dose of Compound 2, day 63, Rat 3): <0.1 ng/mL
Compound 2 conc. (single i.m. dose of Compound 2, day 63, Rat 4): 0.142 ng/mL
Compound 2 conc. (single i.m. dose of Compound 2, day 63, Rat 5): <0.1 ng/mL
Compound 2 conc. (single i.m. dose of Compound 2, day 71, Rat 1): <0.1 ng/mL
Compound 2 conc. (single i.m. dose of Compound 2, day 71, Rat 2): <0.1 ng/mL
Compound 2 conc. (single i.m. dose of Compound 2, day 71, Rat 3): <0.1 ng/mL
Compound 2 conc. (single i.m. dose of Compound 2, day 71, Rat 4): <0.1 ng/mL
Compound 2 conc. (single i.m. dose of Compound 2, day 71, Rat 5): <0.1 ng/mL
Compound 2 conc. (single i.m. dose of Compound 2, day 78, Rat 1): <0.1 ng/mL
Compound 2 conc. (single i.m. dose of Compound 2, day 78, Rat 2): <0.1 ng/mL
Compound 2 conc. (single i.m. dose of Compound 2, day 78, Rat 3): <0.1 ng/mL
Compound 2 conc. (single i.m. dose of Compound 2, day 78, Rat 4): <0.1 ng/mL
Compound 2 conc. (single i.m. dose of Compound 2, day 78, Rat 5): <0.1 ng/mL
Compound 2 conc. (single i.m. dose of Compound 2, day 85, Rat 1): <0.1 ng/mL
Compound 2 conc. (single i.m. dose of Compound 2, day 85, Rat 2): <0.1 ng/mL
Compound 2 conc. (single i.m. dose of Compound 2, day 85, Rat 3): <0.1 ng/mL
Compound 2 conc. (single i.m. dose of Compound 2, day 85, Rat 4): <0.1 ng/mL
Compound 2 conc. (single i.m. dose of Compound 2, day 85, Rat 5): <0.1 ng/mL
Compound 2 conc. (single i.m. dose of Compound 2, day 91, Rat 1): <0.1 ng/mL
Compound 2 conc. (single i.m. dose of Compound 2, day 91, Rat 2): <0.1 ng/mL
Compound 2 conc. (single i.m. dose of Compound 2, day 91, Rat 3): <0.1 ng/mL
Compound 2 conc. (single i.m. dose of Compound 2, day 91, Rat 4): <0.1 ng/mL
Compound 2 conc. (single i.m. dose of Compound 2, day 91, Rat 5): <0.1 ng/mL
plasma concentrations of parent Compound 2 and the resultant intermediate (rat, single i.m. dose of Compound 2, over 91 days): generally low to not measurable
conversion of Compound 2 in rats to naltrexone (rat, single i.m. dose, over 91 days): efficient conversion
